± gives the uncertainty stated by the source.
Assay: xn = mol fraction of the nth substance listed

Cl.N[C@@H](CS)C(=O)O.O + O
viscosity [mPa·s], 101 kPa
Settings	303.15 K	308.15 K	313.15 K	318.15 K	323.15 K
x1 = 0.01	0.8529 ± 0.007	0.7892 ± 0.0065	0.7275 ± 0.0061	0.6712 ± 0.0057	0.6181 ± 0.0053
x1 = 0.0122	0.9644 ± 0.048	–	0.795 ± 0.041	–	0.6742 ± 0.035
x1 = 0.02	1.126 ± 0.0089	1.023 ± 0.0082	0.9082 ± 0.0074	0.8248 ± 0.0068	0.769 ± 0.0064
x1 = 0.0272	1.2 ± 0.058	–	0.9836 ± 0.049	–	0.8276 ± 0.042
x1 = 0.04	1.506 ± 0.012	1.356 ± 0.01	1.273 ± 0.0099	1.112 ± 0.0088	1.018 ± 0.0081
x1 = 0.0463	1.591 ± 0.075	–	1.288 ± 0.062	–	1.084 ± 0.053
x1 = 0.0579	1.877 ± 0.087	–	1.508 ± 0.071	–	1.244 ± 0.06
x1 = 0.0714	2.27 ± 0.1	–	1.797 ± 0.083	–	1.49 ± 0.07
x1 = 0.08	2.486 ± 0.018	2.237 ± 0.017	1.968 ± 0.015	1.785 ± 0.014	1.594 ± 0.012
x1 = 0.0871	2.805 ± 0.13	–	2.191 ± 0.1	–	1.711 ± 0.08
x1 = 0.1	3.391 ± 0.025	2.955 ± 0.022	2.572 ± 0.019	2.293 ± 0.017	2.048 ± 0.015
x1 = 0.1057	3.602 ± 0.16	–	2.783 ± 0.13	–	2.239 ± 0.1
x1 = 0.11	3.97 ± 0.029	3.387 ± 0.025	2.951 ± 0.022	2.575 ± 0.019	2.336 ± 0.018
x1 = 0.12	4.627 ± 0.034	3.883 ± 0.029	3.387 ± 0.025	2.93 ± 0.022	2.67 ± 0.02
x1 = 0.1281	5.207 ± 0.22	–	3.69 ± 0.16	–	2.906 ± 0.13
x1 = 0.13	5.349 ± 0.039	4.451 ± 0.033	3.878 ± 0.029	3.35 ± 0.025	3.052 ± 0.023
x1 = 0.14	6.119 ± 0.043	5.101 ± 0.037	4.426 ± 0.033	3.833 ± 0.029	3.483 ± 0.026
x1 = 0.15	6.915 ± 0.047	5.842 ± 0.041	5.027 ± 0.037	4.408 ± 0.033	3.963 ± 0.029
x1 = 0.1558	7.415 ± 0.29	–	5.463 ± 0.23	–	4.309 ± 0.19
x1 = 0.16	7.706 ± 0.051	6.524 ± 0.045	5.678 ± 0.041	5.017 ± 0.037	4.492 ± 0.033
x1 = 0.17	8.459 ± 0.055	7.218 ± 0.049	6.372 ± 0.044	5.719 ± 0.041	5.066 ± 0.037
x1 = 0.18	9.134 ± 0.059	8.014 ± 0.053	7.104 ± 0.049	6.301 ± 0.044	5.685 ± 0.041
x1 = 0.19	9.972 ± 0.064	8.826 ± 0.058	7.864 ± 0.053	7.002 ± 0.048	6.342 ± 0.044
x1 = 0.1903	9.687 ± 0.36	–	7.875 ± 0.31	–	6.354 ± 0.26

NCCCN + O
viscosity [mPa·s]
Settings	303.15 K	308.15 K	313.15 K	318.15 K	323.15 K
101 kPa, x1 = 0.05	1.58 ± 0.01	1.38 ± 0.009	1.227 ± 0.008	1.097 ± 0.0072	–
101 kPa, x1 = 0.0966	2.754 ± 0.017	2.355 ± 0.015	2.03 ± 0.013	–	–
101 kPa, x1 = 0.1458	4.36 ± 0.027	3.619 ± 0.023	3.031 ± 0.019	–	–
101 kPa, x1 = 0.199	6.289 ± 0.037	5.088 ± 0.032	4.188 ± 0.026	–	–
101 kPa, x1 = 0.2473	7.568 ± 0.044	6.055 ± 0.037	4.93 ± 0.031	–	–
101 kPa, x1 = 0.2961	8.219 ± 0.048	6.535 ± 0.04	5.313 ± 0.033	–	–
101 kPa, x1 = 0.3465	7.991 ± 0.047	6.401 ± 0.04	5.22 ± 0.033	–	–
101 kPa, x1 = 0.3974	7.438 ± 0.045	6.022 ± 0.038	4.946 ± 0.032	–	–
101 kPa, x1 = 0.4955	5.878 ± 0.038	4.832 ± 0.032	4.038 ± 0.027	–	–
101 kPa, x1 = 0.5995	4.307 ± 0.029	3.644 ± 0.025	3.127 ± 0.021	–	–
101 kPa, x1 = 0.6969	3.224 ± 0.023	2.779 ± 0.02	2.419 ± 0.017	–	–
101 kPa, x1 = 0.8006	2.501 ± 0.018	2.177 ± 0.016	1.921 ± 0.014	–	–
101 kPa, x1 = 0.8936	1.997 ± 0.015	1.762 ± 0.013	1.573 ± 0.012	–	–
101.33 kPa, x1 = 0.0518	1.637 ± 0.011	1.437 ± 0.01	1.267 ± 0.009	1.127 ± 0.008	1.008 ± 0.007
101.33 kPa, x1 = 0.1	2.991 ± 0.021	2.534 ± 0.018	2.174 ± 0.015	1.887 ± 0.013	1.65 ± 0.012
101.33 kPa, x1 = 0.1498	4.882 ± 0.035	4.012 ± 0.029	3.345 ± 0.024	2.827 ± 0.02	2.417 ± 0.018
101.33 kPa, x1 = 0.2004	6.762 ± 0.047	5.446 ± 0.04	4.467 ± 0.033	3.714 ± 0.027	3.132 ± 0.023
101.33 kPa, x1 = 0.2498	7.872 ± 0.056	6.309 ± 0.047	5.128 ± 0.039	4.236 ± 0.032	3.548 ± 0.027
101.33 kPa, x1 = 0.2734	8.088 ± 0.059	6.473 ± 0.048	5.268 ± 0.04	4.351 ± 0.033	3.646 ± 0.028
101.33 kPa, x1 = 0.2984	8.108 ± 0.06	6.502 ± 0.049	5.297 ± 0.041	4.379 ± 0.034	3.662 ± 0.029
101.33 kPa, x1 = 0.3248	7.918 ± 0.06	6.364 ± 0.049	5.199 ± 0.041	4.307 ± 0.034	3.619 ± 0.029
101.33 kPa, x1 = 0.3502	7.614 ± 0.059	6.155 ± 0.048	5.027 ± 0.04	4.189 ± 0.033	3.518 ± 0.028
101.33 kPa, x1 = 0.3766	7.121 ± 0.056	5.774 ± 0.047	4.754 ± 0.039	3.972 ± 0.032	3.354 ± 0.027
101.33 kPa, x1 = 0.4041	6.681 ± 0.054	5.464 ± 0.045	4.509 ± 0.037	3.787 ± 0.031	3.211 ± 0.027
101.33 kPa, x1 = 0.4467	5.911 ± 0.05	4.871 ± 0.042	4.068 ± 0.035	3.445 ± 0.029	2.935 ± 0.025

From the CheMixHub viscosity set
